Results on one molecule are retold here after article PMC3342448 (Cancer Research, 2012).

In data set [1] the target is CAT (Homo sapiens, UniProt P50281). Briefly: Cleavage of fluorescent peptide by MT1-MMP catalytic domain. Type of data set: biochemical. The note with it: CAT 10 nM, fluorescent substrate 10 μM.
For data set [2], the system named is MCF7-β3/MT cells. The data set is described as follows: Cell viability. Type of data set: cell-based, Human. To be noted: 400 μM, 6 h.
Data set [3] relates to 184B5-MT cells. The data set is described as follows: Transwell migration assay on COL-I, 184B5-MT cells. The format is cell-based, Human. The note with it: compounds 10–100 μM, 16–18 h.
Data set [4] has as its system MDA-MB-231 cells. The data set is described as follows: Transwell migration assay on COL-I, MDA-MB-231 cells. Type of data set: cell-based, Human. To be noted: compounds 100 μM.
Data set [5] deals with 184B5-MT cells. Briefly: Cell adhesion assay on COL-I and Matrigel, 184B5-MT cells. The format is cell-based, Human. To be noted: compounds 25–100 μM, 1 h adhesion.
Data set [6] has as its target MT1-MMP homodimerization (Homo sapiens, UniProt P50281). Briefly: MT1-MMP dimerization test. Type of data set: cell-based. To be noted: compounds 100 μM, 24 h, MCF7-MT-V5 cells transfected with MT1-MMP-FLAG.
Data set [7] addresses cellular MT1-MMP (Homo sapiens, UniProt P50281). Briefly: Gelatin zymography of MMP-2 activation by 184B5-MT cells. Type of data set: cell-based. To be noted: 184B5-MT cells with proMMP-2, compound 1–100 μM.
Data set [8] concerns the target T1, MMP-2 (Homo sapiens, UniProt P08253).
T1 sequence (P08253 110-660): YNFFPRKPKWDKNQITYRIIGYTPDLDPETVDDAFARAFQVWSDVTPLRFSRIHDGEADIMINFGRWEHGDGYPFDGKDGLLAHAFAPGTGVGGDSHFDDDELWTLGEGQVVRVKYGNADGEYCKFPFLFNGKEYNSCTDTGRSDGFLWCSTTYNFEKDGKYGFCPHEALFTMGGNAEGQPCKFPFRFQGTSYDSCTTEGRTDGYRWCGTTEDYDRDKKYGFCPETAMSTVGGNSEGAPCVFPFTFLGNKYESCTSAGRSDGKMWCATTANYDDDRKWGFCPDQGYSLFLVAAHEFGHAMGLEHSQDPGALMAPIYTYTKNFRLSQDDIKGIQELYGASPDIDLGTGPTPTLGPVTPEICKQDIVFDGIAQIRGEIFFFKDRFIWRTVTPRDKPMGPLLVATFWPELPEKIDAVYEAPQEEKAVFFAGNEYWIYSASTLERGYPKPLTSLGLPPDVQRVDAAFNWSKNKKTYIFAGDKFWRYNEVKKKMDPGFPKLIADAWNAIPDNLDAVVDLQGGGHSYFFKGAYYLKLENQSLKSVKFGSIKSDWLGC
Briefly: Catalytic activity of MMP-2. Type of data set: biochemical. To be noted: not shown.

The test system of data set [9] is MCF7-β3/MT xenografts. Briefly: MCF7-β3/MT tumor xenografts in mice. Type of data set: in vivo.
Data set [10] has as its target MT1-MMP (Homo sapiens, UniProt P50281). Briefly: Gelatin zymography of MCF7-β3/MT tumor extracts. To be noted: tumor extracts of mice treated 0.5 mg/kg intratumoral. The format is in vivo.
Data set [11] deals with MCF7-β3/MT cells. The data set is described as follows: COL-I degradation assay, MCF7-β3/MT cells. Type of data set: cell-based, Human. The note with it: compound 100 μM, 3 days.
Data set [12] is described as follows: Solubility in aqueous solutions. The format is physicochemical. The note with it: 400 μM stock in PBS was highest reachable.

As for `CCCC(C)NC(=O)c1ccc(Cl)c(Cl)c1` (stereo not drawn) [compound 9], the “effect on cleavage activity of CAT” value in data set [1] was “did not affect the cleavage activity”. In addition, the “cytotoxicity in MCF7-β3/MT cells” value in [2] was “did not demonstrate any cytotoxicity”. Further, the “migration of 184B5-MT cells on COL-I” value in [3] was “repressed migration of 184B5-MT cells on COL-I in a dose-dependent manner”. Also, the “migration of MDA-MB-231 cells” value in [4] is reported as “did not show any inhibitory effect”. Also, in [5], the “adhesion of 184B5-MT on Matrigel and COL-I substrates” value is “did not affect cell adhesion”. Further, the “levels of co-precipitated MT1-MMP-V5 in pull-down samples (homodimerization)” value in data set [6] is reported as “significantly reduced”. For the same molecule, the “catalytic function of cellular MT1-MMP (MMP-2 activation)” value in data set [7] is listed as “did not inhibit”. Moreover, the “catalytic activity of MMP-2” value in data set [8] is “did not inhibit”. For the same molecule, the “physical damage and necrosis in tumors after injections” value in data set [9] (0.5 mg/kg intratumoral) was “no physical damage and necrosis”. Also, in data set [9] (0.5 mg/kg intratumoral injections), the tumor phenotype result is listed as “caused a fibrotic tumor phenotype”. Besides, the “xenograft angiogenesis (H&E staining)” value in data set [9] (0.5 mg/kg intratumoral, compared with control mice) is “did not reveal any significant effect”. For the same molecule, the “immunoreactivity and levels of COL-I in tumors” value in data set [9] (0.5 mg/kg intratumoral, experimental versus control) is “significantly enhanced”. Also, in data set [10], the “ability of MT1-MMP to activate MMP-2 in tumors” value is recorded as “did not affect”. In data set [11], the “collagenolytic activity (COL-I degradation) in MCF7-β3/MT cells” value is “dramatically reduced”. Moreover, in [12], the solubility entry is recorded as “limited solubility”.
